According to patent US20230310412A1, “USE OF CASPASE INHIBITOR FOR ALLEVIATING OR TREATING OSTEOARTHRITIS” (LG CHEM, LTD., priority 2020, published 2023):
Entries after “also recorded” stand apart in the source; their conditions may differ.

What was measured:
[1] = tested on: osteoarthritis-induced beagle dogs; experiment: Efficacy on improving walking ability (lameness score) in animal model of osteoarthritis; assay type: in vivo
Experimental: Beagle dogs were purchased from Orient Bio, and healthy animals were used for the experiment after a one-week quarantine cycle. After 1 week of recovery after surgical anterior cruciate ligament transection with medial meniscectomy, forced exercise for 30 minutes every day was carried out to induce osteoarthritis. The surgery for inducing osteoarthritis was performed under anesthesia after the animals were depilated on both knees. After broad disinfection of the incision site with povidone and 70% ethanol, the skin of the right knee was incised. By blunt dissection of the surrounding tissues, the articular surface of the distal end of femur was exposed. An instrument portal was created on the medial articular surface, and the meniscus and anterior cruciate ligament were excised. Wound closure was performed by the use of 4-0 nylon suture. […] The assessment about walking ability for evaluating the pain status and functional level of osteoarthritis animals was carried out according to the method proposed by Pashuck et al. (Troy D. Pashuck et al., J Orthop Res, 2016, 34(10): 1772-1779), and the lameness score as represented in Table 1 was recorded until the end of the experiment. […] The efficacy of nivocasan in an animal model of osteoarthritis was measured by evaluating the lameness score twice a week after a single intra-articular administration. […]

[2] = tested on: beagle dog model of osteoarthritis; experiment: MRI evaluation of effect on joint structure in animal model of osteoarthritis; assay type: in vivo; conditions: MRI before vs 3 months after single intra-articular administration; FIG. 6
Experimental: In a beagle dog model of osteoarthritis induced by daily forced exercise after surgical anterior cruciate ligament transection with medial meniscectomy, the effect on joint structure was evaluated by taking an MRI (SIGNA Pioneer 3.0T MR, GE Healthcare Co., USA) of the joint before a single intra-articular administration and 3 months thereafter.

[3] = tested on: IL-1β secretion in THP-1 cells; experiment: Suppressive efficacy against LPS/nigericin-induced IL-1β secretion in THP-1 cells; assay type: cell-based, human; conditions: PMA-differentiated, LPS 100 ng/ml 24 h, compound 30 min, then 5 μM nigericin & 1 mM ATP 1 h, ELISA, FIG. 1
Experimental: To evaluate the inflammation blocking effects of nivocasan, IL-1β secretion was measured in THP-1 cells under conditions in which inflammation was induced by lipopolysaccharide (LPS)/nigericin treatment. The day before LPS treatment, THP-1 cells were plated at 2.5×10^5 cells/well (24-well plate) in RPMI-1640 media and treated with 0.5 μM phorbol 12-myristate 13-acetate (PMA) for macrophage differentiation during overnight culture. The media was then changed with Opti-MEM media and the cells were incubated with LPS 100 ng/ml (the first inflammation signal for […] up-regulation) for 24 hours. The cells were then washed with PBS twice and treated with nivocasan or DMSO for 30 minutes in Opti-MEM media, followed by incubation with 5 μM nigericin & 1 mM ATP for 1 hour to activate inflammasome (NLRP3 activation and IL-1β secretion). Secreted IL-1β was measured from cell media by using R&D Systems Quantikine human IL-1β (detection limit: 7.8 pg/ml), and the results are represented in FIG. 1.

[4] = tested on: IL-1β secretion in human peripheral blood mononuclear cells (PBMCs); experiment: Suppressive efficacy against LPS-induced IL-1β secretion in human-derived PBMC; assay type: cell-based; conditions: FIG. 2
Experimental: The inhibitory effects of nivocasan on inflammasome activation in human peripheral blood mononuclear cells (PBMCs) were evaluated by measuring LPS-induced IL-1β secretion. Freshly isolated PBMCs were plated at 2.5×10^5 cells/well (24-well plate) in RPMI-1640 media and treated with nivocasan or DMSO for 30 minutes, followed by incubation with 100 ng/ml LPS for 24 hours to induce inflammation. Levels of IL-1β in PBMC supernatants was measured by ELISA (R&D Systems Quantikine human IL-1β; detection limit: 7.8 pg/ml), and the results are represented in FIG. 2.

human chondrocytes = experiment: Protective effect on TNF-α-induced apoptosis in human-derived chondrocytes; assay type: cell-based; conditions: human normal chondrocytes, compound 30 min, then 10 ng/ml TNF-α and 1 μg/ml actinomycin D 18 h; Cell Death Detection ELISA; FIG. 3
Experimental: The protective effect of nivocasan on TNF-α-induced apoptosis was evaluated in human chondrocytes. Human normal chondrocytes were plated at 1×10^5 cells/well (collagen-coated 24-well plate) in chondrocyte media (Prigrow IV Medium, Applied Biological Materials Inc.) and incubated overnight. The cells were treated with nivocasan or DMSO for 30 minutes, followed by incubation with 10 ng/ml human recombinant TNF-α and 1 μg/ml actinomycin D for 18 hours to induce apoptosis. Apoptosis was measured by using Cell Death Detection ELISA kit, and the results are represented in FIG. 3.

[5] = tested on: beagle dog model of osteoarthritis; experiment: Histopathological evaluation of effect on joint in animal model of osteoarthritis; assay type: in vivo
Experimental: In a beagle dog model of osteoarthritis induced by daily forced exercise after surgical anterior cruciate ligament transection with medial meniscectomy, an autopsy was performed 3 months after a single intra-articular administration, and the joint was collected and fixed. The fixed tissue was subjected to conventional tissue processing such as demineralization, trimming, dehydration, paraffin embedding, sectioning and the like to prepare a specimen for histopathological examination, followed by hematoxylin eosin and safranin-o staining. An optical microscopy (Olympus BX53, Japan) was used to observe histopathological changes.
Histopathological evaluation was performed by comparing between groups with scoring as shown in Tables 3 to 8 according to the method proposed by Cook et al. (Cook et al., Osteoarthritis Cartilage. 2010; 18 Suppl 3:S66-S79), and the results are represented in FIG. 7.

SMILES	improvement of walking ability (lameness score), compared with nivocasan ([1]; single intra-articular administration of 10 mg, FIG. 5)	bone marrow lesion (MRI score) [2]	synovitis (MRI score) [2]	suppression of LPS/nigericin-induced IL-1β secretion [3]	concentration showing maximum effect on LPS-induced IL-1β secretion ([4]; 100 ng/ml LPS 24 h)	suppression of LPS-induced IL-1β secretion ([4]; compound 30 min, then 100 ng/ml LPS 24 h, ELISA)	prevention of TNF-α-induced apoptosis (human chondrocytes)	improvement of walking ability (lameness score) ([1]; single intra-articular administration 0.1, 0.3, 1, 3 and 10 mg/knee, scored twice a week for 3 months, FIG. 4)	histopathology evaluation of the joints ([5]; autopsy 3 months after single intra-articular administration, FIG. 7)	improving cartilage structure ([5]; single administration, summary of Examples 4 to 6)
C[C@H](NC(=O)C(=O)Nc1ccccc1C(C)(C)C)C(=O)N[C@@H](CC(=O)O)C(=O)COc1c(F)c(F)cc(F)c1F [emricasan, N-(2-tert-butylphenyl)-2-oxoglycyl-N-[1(S)-(carboxymethyl)-2-oxo-3-(2,3,5,6-tetrafluorophenoxy)propyl]-L-alaninamide, reference compound]	improvement of a walking ability similar to that of 10 mg of nivocasan	improvement	improvement							
CC(C)[C@@]1(C(=O)N[C@H]2CC(=O)O[C@]2(O)CF)CC(c2nccc3ccccc23)=NO1 [nivocasan, (R)—N-((2S,3S)-2-(fluoromethyl)-2-hydroxy-5-oxotetrahydrofuran-3-yl]-5-isopropyl-3-(isoquinolin-1-yl)-4,5-dihydroisoxazole-5-carboxamide]		improvement	improvement	suppressed LPS/nigericin-induced IL-1β secretion in THP-1 cells in a dose-dependent manner	0.3 µM	suppressed LPS-induced IL-1β secretion from PBMCs in a dose dependent manner	prevented TNF-α-induced apoptosis in human chondrocytes in a dose-dependent manner	showed the efficacy of the improvement of walking ability in a dose-dependent manner; also recorded: effective in improving walking ability	dose-related histopathological improvement	effective in improving cartilage structure
